# Patent US10864296B2, “Polypeptide and hyaluronic acid coatings” (INSTITUT NATIONAL DE LA SANTE ET DE LA RECHERCHE MEDICALE …, priority 2017, dated 2020)
# Values joined by “and” are separate entries in the source; they are usually repeats but may differ in a detail not shown here. Equal values may be shown once.
# Key:
# S. aureus [1] = details: Adv. Funct. Mater. 2013, 23, 4801-4809; cited from earlier work
# S. aureus [2] = experiment: Minimal inhibitory concentration (MIC) of PAR in solution, 24 h in MHB medium with S. aureus; format: cell-based, Staphylococcus aureus; details: for times less active than PAR100 or PAR200 chains (from MICs in solution): per chain; for bacterial growth inhibition in solution: PAR 1 μM
# Procedure: PAR with 10, 30, 100 or 200 arginine residues per chain were tested. Each PAR was incubated 24 h at 37° C. in 300 μL of MHB medium with S. aureus (A620=0.001). Pathogen growth of 0% corresponds to medium with antibiotics (and without PAR) and 100% to medium without PAR. Each value corresponds to the mean value of 3 individual experiments (3 samples per experiment and condition) and error bars correspond to standard deviations. For each concentration, the first column represents the normalized pathogen growth of S. aureus for PAR10, the 2nd column for PAR30, the third column for PAR100 and the fourth for PAR200.
# Staphylococcus aureus (S. aureus, ATCC 25923) strains were used to assess the antibacterial properties of the test samples. Bacterial strain was cultured aerobically at 37° C. in a Mueller Hinton Broth (MHB) medium (Merck, Germany), pH 7.4. One colony was transferred to 10 mL of MHB medium and incubated at 37° C. for 20 h, to provide a final density of 10^6 CFU·mL^−1. To obtain bacteria in the mid logarithmic phase of growth, the absorbance at 620 nm of overnight culture was adjusted of 0.001.
# In the following the inventors of the present invention wanted to further elucidate the underlying mechanism that confer to the coatings of the invention the strong inhibitory property on the surface and in the supernatant. As an example the (PAR30/HA)24 coating was further investigated. Accordingly, the minimal inhibitory concentration (MIC) of PAR in solution was determined using bacterial assay as described in Experimental Section. […] Finally for PAR at concentrations of 0.01 mg·mL^−1, inhibition of 100% was shown only for PAR30. Longer or shorter PAR chains (PAR10, PAR100 or PAR200) inhibits only partially (less than 40%) S. aureus growth. […] This reasoning is valid when PAR concentration values are expressed in mass (mg·mL^−1) thus it is related to the number of arginine monomers. However when the graph is plotted with concentrations in μM (and thus proportional in number of chains), which means that concentration is related to number of chains, different interpretation can be made (Data not shown). […] Moreover the MIC100 values obtained for PAR30, PAR100 or PAR200 ranges at very low concentrations (between 1 and 2 μM) which is remarkable when compared to well-known antimicrobial peptides (for example 30 μM for cateslytin with S. aureus, see Adv. Funct. Mater. 2013, 23, 4801-4809). PAR is thus a powerful candidate to fight against S. aureus.
# [3] = Fluorescence recovery after photobleaching (FRAP) of PAR-FITC in (PAR/HA)24 multilayers; format: physicochemical; details: PAR-FITC in (PAR/HA)24 multilayer, hydrochloride
# Procedure: The diffusion coefficient, D, and the proportion of mobile molecules, p, was measured for (PAR/HA)24 multilayers containing PAR-FITC by performing photobleaching experiments (FRAP, Fluorescence Recovery After Photobleaching).
# A glass slide coated with the multilayer was introduced in a home-made sample holder and immerged in 200 μl of Tris-NaCl buffer. One circular regions (4.4 μm in radius and referred as “R4” in an image of 35 μm×35 μm or 10.6 μm in radius and referred as “R10” in an image of 85 μm×85 μm) were exposed for 700 msec to the laser light set at its maximum power (λ=488 nm). Then, the recovery of the fluorescence in the bleached area was observed over time. Observations were carried out with a Zeiss LSM 710 microscope (Heidelberg, Germany) using a 20× objective (Zeiss, Plan Apochromat).
# Then the inventors investigated if the bactericidal activity of the PAR30/HA multilayer is related to the mobility of these chains in the films. Indeed, it is known that the exponential character of a multilayer is related to the diffusion ability of at least one of its constituents in and out of the film during each deposition step. They first determined the mobility of the different chains, PAR10, PAR30, PAR100 and PAR200 in the (PAR/HA)24 multilayer by using FRAP method. […] Recovery of fluorescence appears very fast for PAR10 and PAR30 compare to PAR100 or PAR200. From these curves we can deduce the percentage of mobile chains over the timescale of the experiments. It clearly appears that PAR10 and PAR30 chains are more mobile (between 85 to 90% of mobile fraction) than the PAR100 (only 63% of mobile fraction). The largest chains PAR200 correspond to the slowest with about 12% of the population which is mobile (FIG. 8). Accordingly, the fraction of mobile chains dramatically decreases when the chain length increases from 30 to 100 or 200 residues.
# [4] = Release of PAR-FITC from (PAR30/HA)24 into the supernatant; format: physicochemical; details: after 24 h, from (PAR30/HA)24 built with PAR-FITC, 37° C.
# Procedure: For the first experiment, a multilayer coating (PAR30/HA)24 was built by using PAR-FITC. Release experiments were performed at 37° C. during 24 h in presence of MHB medium or a S. aureus/MHB solution (A620=0.001). 300 μL of mineral oil were added on the top of the supernatant to prevent any evaporation during the monitoring. The release of PAR-FITC in solution was performed by measuring the fluorescence of the supernatant over time with a spectrofluorimeter (SAFAS Genius XC spectrofluorimeter, Monaco) with excitation/emission wavelength of 488/517 nm. Three samples were studied for each conditions.
# In view of the absence of specific properties of PAR30 in solution compared to shorter or longer PAR chains, the antimicrobial abilities of PAR30/HA films should be related to the film property by itself. In this context, the inventors investigated if the bactericidal property of the film is due to the release of PAR30 chains from the multilayer into the solution or if bacteria need to come in contact with the film to be killed. For this purpose two types of experiments were performed. Using fluorescently labelled PAR30 chains we first determined the release of PAR30 chains into the solution containing solely MH medium with and without S. aureus. […] Finally, we also performed an experiment where bacteria were brought in contact with a (PAR30/HA)24 film for 24 hours. […]
# [5] = PAR concentrations up to 0.04 mg·mL^−1
Substance,"MIC of a well-known antimicrobial peptide, compared with MIC100 of PAR (S. aureus [1]) [µM]",S. aureus growth inhibition in solution (in words) (S. aureus [2]; PAR 0.02 mg·mL^−1),S. aureus growth inhibition in solution (in words) (S. aureus [2]; [5]),"concentration needed for a similar effect (about 90% inhibition) (S. aureus [2]; in solution, S. aureus)",times less active than PAR100 or PAR200 chains (from MICs in solution) (S. aureus [2]; hydrochloride) [times],proportion of mobile PAR chains (mobile fraction) [3],"S. aureus growth inhibition in solution (S. aureus [2]; PAR 0.01 mg·mL^−1, hydrochloride) [%]","MIC90 (S. aureus [2]; in solution, S. aureus)",PAR30 released into solution [4],bacterial growth inhibition in solution (S. aureus [2]),S. aureus growth inhibition in solution (S. aureus [2]; PAR 0.02 mg·mL^−1)
cateslytin,30,–,–,–,–,–,–,–,–,–,–
poly(I-arginine hydrochloride) [PAR10],–,quasi total inhibition,totally inhibited,about 10 μM,10,~90%,–,–,–,–,–
poly(I-arginine hydrochloride) [PAR30],–,quasi total inhibition,totally inhibited,about 10 μM,2,–,100,about 2 μM,about 0.18 μM,–,–
poly(I-arginine hydrochloride) [PAR100],–,quasi total inhibition,totally inhibited,–,–,63% and 70%,–,–,–,about 90%,–
poly(I-arginine hydrochloride) [PAR200],–,–,totally inhibited,–,–,about 12%,–,–,–,about 90%,about 45%
